Consider six compounds from ChEMBL document CHEMBL1150255, “Spongian diterpenes with thyrotropin releasing hormone receptor 2 binding affinity from Spongia sp” (J Nat Prod, 2008).

In general, IC50 refers to the concentration at which inhibition is half-maximal.

The assay deals with T1, Thyrotropin-releasing hormone receptor 2 (Rattus norvegicus, UniProt A6IZR3).
T1 sequence (A6IZR3 whole entry): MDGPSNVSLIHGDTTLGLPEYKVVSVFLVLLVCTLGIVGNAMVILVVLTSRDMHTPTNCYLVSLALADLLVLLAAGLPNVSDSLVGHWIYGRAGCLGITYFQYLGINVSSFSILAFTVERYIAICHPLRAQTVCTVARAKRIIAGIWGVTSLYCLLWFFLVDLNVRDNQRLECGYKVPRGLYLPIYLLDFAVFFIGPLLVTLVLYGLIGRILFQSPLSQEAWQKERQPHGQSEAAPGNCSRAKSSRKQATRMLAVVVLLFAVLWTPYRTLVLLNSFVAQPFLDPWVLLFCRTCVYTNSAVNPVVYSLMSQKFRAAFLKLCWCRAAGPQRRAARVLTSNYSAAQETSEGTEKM
Nature of the assay: Displacement of [3H]3-methylhistidyl-TRH from rat recombinant TRHR2 expressed in […] cells. In kind it is cell-based.

Turning to `CC1(C)CCC[C@]2(C)[C@H]3CCc4cocc4[C@]3(C)CC[C@@H]12`, the IC50 was determined as 1000 µM.
Consider `CC(=O)OC[C@@]1(C)CCC[C@]2(COC(C)=O)[C@H]3CCc4cocc4[C@]3(C)CC[C@@H]12`, for which the IC50 stood at 400 µM.
In the case of `CC(=O)OC[C@@]1(C)CCC[C@]2(CO)[C@H]3CCc4cocc4[C@]3(C)CC[C@@H]12` it was 70 µM; in that of `C[C@]1(CO)CCC[C@]2(CO)[C@H]3CCc4cocc4[C@]3(C)CC[C@@H]12`, 600 µM; in that of `CC(=O)OC[C@]12CCC[C@](C)(CO)[C@@H]1CC[C@@]1(C)c3cocc3CC[C@H]21`, 23 µM.
With `NC(=O)[C@@H]1CCCN1C(=O)[C@H](Cc1cnc[nH]1)NC(=O)[C@@H]1CCC(=O)N1` [PROTIRELIN], the IC50 was 0.023 µM.
